Assay [1] deals with I-Ak (Mus musculus, UniProt P01910+P06343). The experiment in a line: Peptide binding immunoassay. The conditions noted are these: 250 μM unlabeled HEL(46-61) vs biotin-HEL(46-61), 68 h.
Assay [2] concerns the target I-Ed (Mus musculus, UniProt P01904+P01915). The conditions noted are these: pH 5 as compared with pH 7; cited from earlier work.

We go through two substances from paper PMC2119350 (The Journal of Experimental Medicine, 1992).

As for NTDGSTDYGILQINSR [HEL(46-61)], in assay [1], the “nonspecific signal remaining with unlabeled competitor” value is < 10 % of maximal absorbance.

Turning to GMNAWVAWRNR.CKGTDVY [HEL(104-120)], in assay [2], the apparent affinity entry is listed as “increased”, the “apparent concentration (number) of peptide-binding sites” value is on record as “increased”, the effect on dissociation result was “no measurable effect” and the rate of association result is on record as “increased”.
